Where two headings read alike, the source gives them in different places.
Experiments:
Type in all cases: cell-based, Acinetobacter baumannii
[1] = tested on: A. baumannii NCTC 13304 (OXA 51, OXA 27); assay: Time kill study; conditions: for Bacterial count: agent alone at 8 mcg/ml, initial count 6.06 log CFU/ml
Protocol: (§1) The synergistic killing effect of the combinations according to invention was studied using time kill studies. In a typical time kill study, freshly grown cultures were diluted to the required cell density (initial starting inoculum) in Cation adjusted Muller Hinton broth medium (BD, USA). The antibacterial agents (either alone or in combination) at the required concentrations were added into the culture-containing medium. The samples were incubated under shaking condition (120 rpm) at 37° C. Enumeration of viable bacterial count was done every 2 hour by diluting in normal saline and plating on to the Tryptic Soya Agar plates (BD, USA). The plates were incubated for 24 hours to arrive at the viable bacterial count. The results are expressed in terms of Log CFU per […]. In general, the decrease of 1 Log CFU/ml, corresponds to 90% killing of bacteria. Similarly, 2 Log CFU/ml reductions indicates 99% killing of bacteria and 3 Log CFU/ml reductions is equal to 99.9% killing of bacteria.

[2] = tested on: A. baumannii NCTC 13302 (OXA 51, OXA 25); assay: Time kill study; conditions: for Bacterial count: agent alone at 8 mcg/ml, initial count 6.54 log CFU/ml
Protocol: as §1

[3] = tested on: A. baumannii G 156 (OXA 51, OXA 23); assay: MIC in Muller Hinton Agar (CLSI agar dilution); conditions: Acinetobacter baumannii
Protocol: (§2) The antibacterial activity of combinations according to the invention against resistant bacterial strains was investigated. Minimum Inhibitory Concentration (MIC) for the combinations according to invention was determined in Muller Hinton Agar (MHA) (BD, USA) according to Clinical and Laboratory Standards Institute (CLSI) recommendations (Clinical and Laboratory Standards Institute (CLSI), Performance Standards for Antimicrobial Susceptibility Testing, 20th Informational Supplement, M 100-S20, Volume 30, No. 1, 2010). Typically, the test strains were adjusted to deliver about 10^4 CFU per spot with a multipoint inoculator (Applied Quality Services, UK). The plates were pored with MHA containing doubling concentration range of the test combinations according to invention. The plates were inoculated and were incubated at 35° C. for 18 hours.

[4] = tested on: A. baumannii Q 1460648 (OXA 51, OXA 23); assay: MIC in Muller Hinton Agar (CLSI agar dilution); conditions: Acinetobacter baumannii
Protocol: as §2

[5] = tested on: A. baumannii NCTC 13304 (OXA 51, OXA 27); assay: MIC in Muller Hinton Agar (CLSI agar dilution); conditions: Acinetobacter baumannii
Protocol: as §2

[6] = tested on: A. baumannii NCTC 13303 (OXA 51, OXA 26); assay: MIC in Muller Hinton Agar (CLSI agar dilution); conditions: Acinetobacter baumannii
Protocol: as §2

[7] = tested on: A. baumannii M 126 (OXA 51, OXA 23); assay: MIC in Muller Hinton Agar (CLSI agar dilution); conditions: Acinetobacter baumannii
Protocol: as §2

[8] = tested on: A. baumannii J 144 (OXA 51, OXA 23); assay: MIC in Muller Hinton Agar (CLSI agar dilution); conditions: Acinetobacter baumannii
Protocol: as §2

[9] = tested on: A. baumannii NCTC 13301 (OXA 51, OXA 23); assay: MIC in Muller Hinton Agar (CLSI agar dilution); conditions: Acinetobacter baumannii
Protocol: as §2

[10] = tested on: A. baumannii NCTC 13305 (OXA 51, OXA 58); assay: MIC in Muller Hinton Agar (CLSI agar dilution); conditions: Acinetobacter baumannii
Protocol: as §2

[11] = tested on: A. baumannii NCTC 13302 (OXA 51, OXA 25); assay: MIC in Muller Hinton Agar (CLSI agar dilution); conditions: Acinetobacter baumannii
Protocol: as §2

What does the source list for `CC1(C)[C@H](C(=O)O)N2C(=O)C[C@H]2S1(=O)=O` [Sulbactam, sulbactam]?
Bacterial count ([1]; 2 hours): 7.73 Log CFU/ml; Bacterial count ([1]; 4 hours): 7.07 Log CFU/ml; Bacterial count ([1]; 6 hours): 8.2 Log CFU/ml; Effect on bacterial counts throughout the duration of the study (in words) ([1]; A. baumannii NCTC 13304, summary of Table 4): did not reduce the bacterial counts; Bacterial count ([2]; 2 hours): 5.74 Log CFU/ml; Bacterial count ([2]; 4 hours): 5.09 Log CFU/ml; Bacterial count ([2]; 6 hours): 6.04 Log CFU/ml; Bacterial count ([2]; 8 hours): 7.46 Log CFU/ml; Effect on bacterial counts throughout the duration of the study (in words) ([2]; A. baumannii NCTC 13302, summary of Table 3): did not reduce the bacterial counts; MIC ([3]; read-out: MIC of Sulbactam, In presence of Compound of Formula (I) (4 mcg/ml), G 156): 4 µg/mL; MIC ([3]; read-out: MIC of Sulbactam, In presence of Compound of Formula (I) (8 mcg/ml), G 156): 2 µg/mL; MIC ([3]; agent alone, A. baumannii G 156): 8 µg/mL; MIC ([4]; read-out: MIC of Sulbactam, In presence of Compound of Formula (I) (4 mcg/ml), Q 1460648): 4 µg/mL; MIC ([4]; read-out: MIC of Sulbactam, In presence of Compound of Formula (I) (8 mcg/ml), Q 1460648): 2 µg/mL; MIC ([4]; agent alone, A. baumannii Q 1460648): 16 µg/mL; MIC ([5]; NCTC13304, read-out: MIC of Sulbactam, In presence of Compound of Formula (I) (4 mcg/ml), NCTC 13304): 2 µg/mL; MIC ([5]; NCTC13304, read-out: MIC of Sulbactam, In presence of Compound of Formula (I) (8 mcg/ml), NCTC 13304): 1 µg/mL; MIC ([5]; NCTC13304, agent alone, A. baumannii NCTC 13304): 8 µg/mL; MIC ([6]; NCTC13303, read-out: MIC of Sulbactam, In presence of Compound of Formula (I) (4 mcg/ml), NCTC 13303): 8 µg/mL; MIC ([6]; NCTC13303, read-out: MIC of Sulbactam, In presence of Compound of Formula (I) (8 mcg/ml), NCTC 13303): 4 µg/mL; MIC ([6]; NCTC13303, agent alone, A. baumannii NCTC 13303): 16 µg/mL; MIC ([7]; read-out: MIC of Sulbactam, In presence of Compound of Formula (I) (4 mcg/ml), M 126): 8 µg/mL; MIC ([7]; read-out: MIC of Sulbactam, In presence of Compound of Formula (I) (8 mcg/ml), M 126): 2 µg/mL; MIC ([7]; agent alone, A. baumannii M 126): 32 µg/mL; MIC ([8]; read-out: MIC of Sulbactam, In presence of Compound of Formula (I) (4 mcg/ml), J 144): 2 µg/mL; MIC ([8]; read-out: MIC of Sulbactam, In presence of Compound of Formula (I) (8 mcg/ml), J 144): 1 µg/mL; MIC ([8]; agent alone, A. baumannii J 144): 16 µg/mL; MIC ([9]; NCTC13301, read-out: MIC of Sulbactam, In presence of Compound of Formula (I) (4 mcg/ml), NCTC 13301): 4 µg/mL; MIC ([9]; NCTC13301, read-out: MIC of Sulbactam, In presence of Compound of Formula (I) (8 mcg/ml), NCTC 13301): 2 µg/mL; MIC ([9]; NCTC13301, agent alone, A. baumannii NCTC 13301): 32 µg/mL; MIC ([10]; NCTC13305, read-out: MIC of Sulbactam, In presence of Compound of Formula (I) (4 mcg/ml), NCTC 13305): 2 µg/mL; MIC ([10]; NCTC13305, read-out: MIC of Sulbactam, In presence of Compound of Formula (I) (8 mcg/ml), NCTC 13305): 1 µg/mL; MIC ([10]; NCTC13305, agent alone, A. baumannii NCTC 13305): 4 µg/mL; MIC ([11]; NCTC13302, read-out: MIC of Sulbactam, In presence of Compound of Formula (I) (4 mcg/ml), NCTC 13302): 4 µg/mL; MIC ([11]; NCTC13302, read-out: MIC of Sulbactam, In presence of Compound of Formula (I) (8 mcg/ml), NCTC 13302): 2 µg/mL; MIC ([11]; NCTC13302, agent alone, A. baumannii NCTC 13302): 32 µg/mL

Reference: US20160287571A1, “PHARMACEUTICAL COMPOSITIONS COMPRISING ANTIBACTERIAL AGENTS” (priority 2013, published 2016)
